Organism: Rattus norvegicus
Assay: Open TG-GATES - Regimen: Daily Repeat
Type: toxicity, organism-based, Sprague-Dawley
Parameters: regimen Daily Repeat, gender Male, age 6 weeks
Conditions: in vivo, po, route gavage; for APTT / Bas / Eos / Fbg / Ht / Lym / MCH / MCHC / MCV / Mono / Neu / PT / Plat / RBC / Ret / WBC: tissue Blood
[1] = 30 mg/kg, 72 h, dose level Middle, time 3 day
[2] = 30 mg/kg, 72 h, tissue Kidney, dose level Middle, time 3 day
[3] = 30 mg/kg, 72 h, tissue Plasma, dose level Middle, time 3 day
[4] = 30 mg/kg, […], dose level Middle, time 7 day
[5] = 30 mg/kg, […], dose level Middle, time 14 day
[6] = 30 mg/kg, […], dose level Middle, time 28 day

For `Cc1cccc(Nc2cc(Cl)nc(SCC(=O)O)n2)c1C` [PIRINIXIC ACID], the gamma-GTP (10 mg/kg, […], tissue Plasma, dose level Low, time 28 day) was 1.2 IU/L, the TERMINAL_BW [1] was 229.5 g and the APTT [1] was 15.8 s. It also gave a Bas [1] of 0%, an Eos [1] of 0.8% and a Fbg [1] of 199.8 mg/dL. For the same compound, the Ht [1] was 39.5%, the Lym [1] was 71.6% and the MCH [1] was 21.7 pg. For the same compound, the MCHC [1] was 34.3%, the MCV [1] was 63.4 fL and the Mono [1] was 3.2%. The Neu [1] was 23.8%, the PT [1] was 12.4 s and the Plat [1] was 106.4 x10_4/uL. For the same compound, the RBC [1] was 623.8 x10_4/ul, the Ret [1] was 5.5% and the WBC [1] was 85.4 x10_2/uL. It also gave a KIDNEY_L [2] of 1 g, a KIDNEY_R [2] of 1 g and a KIDNEY_TOTAL [2] of 2 g. The LIVER (30 mg/kg, 72 h, tissue Liver, dose level Middle, time 3 day) was 15.1 g, the ALP [3] was 1953.2 IU/L and the ALT [3] was 77.6 IU/L. For the same compound, the AST [3] was 112 IU/L, the BUN [3] was 14 mg/dL and the CRE [3] was 0.2 mg/dL. For the same compound, the Ca [3] was 10.7 mg/dL, the Cl [3] was 106.4 meq/L and the DBIL [3] was 0.02 mg/dL. For the same compound, the GLC [3] was 192.6 mg/dL, the IP [3] was 7.1 mg/dL and the K [3] was 4 meq/L. It also gave an LDH [3] of 167 IU/L, a Na [3] of 143.6 meq/L and a PL [3] of 106.2 mg/dL. It also gave an RALB [3] of 2.6 g/dL, a TBIL [3] of 0.026 mg/dL and a TC [3] of 51 mg/dL. It also gave a TG [3] of 31.4 mg/dL, a TP [3] of 5.2 g/dL and a gamma-GTP [3] of 1 IU/L. The TERMINAL_BW [4] was 270.6 g, the TERMINAL_BW [5] was 309.3 g and the TERMINAL_BW [6] was 373.2 g. For the same compound, the APTT [4] was 18 s, the Bas [4] was 0% and the Eos [4] was 0.8%. It also gave a Fbg [4] of 230.8 mg/dL, a Ht [4] of 37.9% and a Lym [4] of 76.6%. It also gave an MCH [4] of 22.1 pg, an MCHC [4] of 34% and an MCV [4] of 64.9 fL. It also gave a Mono [4] of 3.2%, a Neu [4] of 19% and a PT [4] of 12.7 s. The Plat [4] was 115.8 x10_4/uL, the RBC [4] was 585.4 x10_4/ul and the Ret [4] was 5.5%. For the same compound, the WBC [4] was 114.2 x10_2/uL, the APTT [5] was 16.4 s and the Bas [5] was 0%. The Eos [5] was 1%, the Fbg [5] was 214 mg/dL and the Ht [5] was 38.2%. For the same compound, the Lym [5] was 76.8%, the MCH [5] was 21.1 pg and the MCHC [5] was 34.8%. It also gave an MCV [5] of 60.5 fL, a Mono [5] of 3.6% and a Neu [5] of 18.2%. For the same compound, the PT [5] was 12.8 s, the Plat [5] was 136.3 x10_4/uL and the RBC [5] was 631.8 x10_4/ul. It also gave a Ret [5] of 4.3%, a WBC [5] of 121.9 x10_2/uL and an APTT [6] of 15.2 s. It also gave a Bas [6] of 0%, an Eos [6] of 1% and a Fbg [6] of 223.8 mg/dL.

Source: ChEMBL document CHEMBL3885861, “Open TG-GATES”
